IC50 data for 35 molecules are collected here from patent publication US9783536B2, “Nitrogen-containing heterocyclic compound or salt thereof” (FUJIFILM Corporation, priority 2013, dated 2017).

pIC50: −log10 of the molar value. Structures can show the parent of a compound that is named as a salt. Where two headings read alike, the source gives them in different places. Where only a bound is given, the exact number is not on record here.

The target in one experiment is T1, human PI3Kα protein (Homo sapiens, UniProt P42336).
T1 construct: purchased Carna Biosciences, Inc; host or cells: baculovirus expression system
T1 sequence (P42336 whole entry): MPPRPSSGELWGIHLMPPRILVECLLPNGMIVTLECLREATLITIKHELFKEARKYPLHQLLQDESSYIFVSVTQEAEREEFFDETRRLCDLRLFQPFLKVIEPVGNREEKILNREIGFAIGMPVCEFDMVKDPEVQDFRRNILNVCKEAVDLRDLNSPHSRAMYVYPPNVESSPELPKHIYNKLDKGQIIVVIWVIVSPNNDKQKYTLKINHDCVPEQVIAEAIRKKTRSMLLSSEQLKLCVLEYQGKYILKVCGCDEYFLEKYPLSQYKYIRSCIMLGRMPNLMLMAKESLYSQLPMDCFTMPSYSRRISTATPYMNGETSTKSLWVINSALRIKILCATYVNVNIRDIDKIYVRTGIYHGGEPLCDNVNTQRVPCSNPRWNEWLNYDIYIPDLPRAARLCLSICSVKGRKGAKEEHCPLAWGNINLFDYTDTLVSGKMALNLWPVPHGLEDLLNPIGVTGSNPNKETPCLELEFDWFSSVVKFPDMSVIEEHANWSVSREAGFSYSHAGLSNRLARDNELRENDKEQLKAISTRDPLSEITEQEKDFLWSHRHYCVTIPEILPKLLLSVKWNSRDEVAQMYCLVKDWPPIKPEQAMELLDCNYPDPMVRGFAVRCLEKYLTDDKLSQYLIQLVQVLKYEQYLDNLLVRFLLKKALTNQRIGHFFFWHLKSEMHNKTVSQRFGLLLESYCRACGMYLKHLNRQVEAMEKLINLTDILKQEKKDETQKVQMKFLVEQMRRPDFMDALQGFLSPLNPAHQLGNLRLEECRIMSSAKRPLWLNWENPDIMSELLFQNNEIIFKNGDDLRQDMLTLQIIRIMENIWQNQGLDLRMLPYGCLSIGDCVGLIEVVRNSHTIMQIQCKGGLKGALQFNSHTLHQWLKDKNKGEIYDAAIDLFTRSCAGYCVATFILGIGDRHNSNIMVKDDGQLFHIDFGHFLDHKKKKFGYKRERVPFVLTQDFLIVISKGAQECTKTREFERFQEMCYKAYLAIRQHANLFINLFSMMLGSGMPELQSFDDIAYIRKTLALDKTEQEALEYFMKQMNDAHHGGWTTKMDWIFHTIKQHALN
T1 sequence (P27986 whole entry partner): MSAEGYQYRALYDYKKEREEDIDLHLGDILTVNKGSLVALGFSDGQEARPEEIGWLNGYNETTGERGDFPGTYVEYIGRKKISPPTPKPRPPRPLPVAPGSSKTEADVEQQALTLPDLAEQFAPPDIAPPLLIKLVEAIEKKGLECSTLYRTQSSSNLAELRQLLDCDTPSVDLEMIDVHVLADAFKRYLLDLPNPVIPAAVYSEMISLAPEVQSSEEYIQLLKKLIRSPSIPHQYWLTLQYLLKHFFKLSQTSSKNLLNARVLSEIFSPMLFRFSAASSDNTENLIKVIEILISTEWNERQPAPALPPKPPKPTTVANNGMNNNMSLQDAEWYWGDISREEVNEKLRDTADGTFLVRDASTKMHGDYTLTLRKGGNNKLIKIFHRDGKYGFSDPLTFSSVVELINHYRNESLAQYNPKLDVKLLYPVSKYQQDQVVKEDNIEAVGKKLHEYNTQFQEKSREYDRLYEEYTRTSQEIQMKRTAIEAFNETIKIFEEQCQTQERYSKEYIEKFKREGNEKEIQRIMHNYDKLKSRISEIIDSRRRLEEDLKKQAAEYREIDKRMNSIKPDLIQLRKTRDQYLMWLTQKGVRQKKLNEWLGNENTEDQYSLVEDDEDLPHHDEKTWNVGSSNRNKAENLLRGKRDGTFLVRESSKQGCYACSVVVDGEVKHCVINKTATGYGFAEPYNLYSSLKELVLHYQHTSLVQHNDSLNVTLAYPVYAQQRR
Briefly: PI3Kα enzyme assay (ADP-Glo). The format is biochemical. The conditions noted are these: read-out: PI3Kα enzyme inhibitory activity. The procedure:
In a PI3Kα enzyme assay, a product (manufactured by Carna Biosciences, Inc.) obtained by biotinylating a human PI3Kα protein produced by using a baculovirus expression system was used. In addition, in the detection of enzyme activity, ADP-GLO KINASE ASSAY (trade name, manufactured by PROMEGA Corporation) was used.
10 μL of a reaction liquid (4.5 nmol/L PI3Kα, 40 mmol/L Tris-HCl, 20 mmol/L MgCl2, 0.1% BSA, pH 7.5) including the human PI3Kα protein and a test compound having a predetermined concentration was allowed to stand at room temperature for 15 minutes. Then, 5 μL of a mixture liquid of L-α-phosphatidylinositol 4,5-diphosphate (PIP2) (manufactured by Sigma-Aldrich Co. LLC.) and ATP (manufactured by Sigma-Aldrich Co. LLC.), which are substrates, was added thereto such that final concentrations thereof became 50 μmol/L and 100 μmol/L, respectively, and an enzyme reaction was performed by allowing to stand at 25° C. for 60 minutes.
After the reaction, the enzyme reaction was stopped by adding 15 μL of an ADP-GLO REAGENT (trade name, manufactured by PROMEGA Corporation) thereto and allowing to stand at room temperature for 60 minutes. Then, 30 μL of a KINASE DETECTION REAGENT (trade name, manufactured by PROMEGA Corporation) was added thereto, followed by allowing to stand at room temperature for 40 minutes, and ADP produced by the enzyme reaction was quantified by emission intensity.
ENVISION (trade name, manufactured by Perkin Elmer Inc.) was used for the measurement of the emission intensity.
(§1) The inhibitory activities of the compounds were evaluated using IC50 (50% inhibitory concentration). The IC50 was calculated using XLFIT (trade name, manufactured by ID Business Solutions).
(ADP-Glo turns the ADP formed in a reaction into a luminescent signal.)

In experiment [1] the target is T2, GST fusion human ERK2 protein (Homo sapiens, UniProt P28482).
T2 construct: purchased Carna Biosciences, Inc; host or cells: E. coli expression system
T2 sequence (P28482 whole entry, the tested form may be a part): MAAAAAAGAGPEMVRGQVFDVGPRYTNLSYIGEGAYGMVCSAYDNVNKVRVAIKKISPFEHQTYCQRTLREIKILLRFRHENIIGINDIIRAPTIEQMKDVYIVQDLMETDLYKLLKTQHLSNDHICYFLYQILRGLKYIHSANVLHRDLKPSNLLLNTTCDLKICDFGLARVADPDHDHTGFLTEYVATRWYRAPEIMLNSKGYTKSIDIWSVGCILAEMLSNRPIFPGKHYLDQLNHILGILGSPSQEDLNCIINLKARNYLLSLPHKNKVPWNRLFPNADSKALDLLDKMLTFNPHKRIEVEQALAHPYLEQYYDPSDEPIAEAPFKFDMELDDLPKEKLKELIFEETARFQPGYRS
In words: ERK2 enzyme assay (2). The format is biochemical. The conditions noted are these: read-out: ERK2 enzyme inhibitory activity (2). Here is the method: In an ERK2 enzyme assay, GLUTATHIONE S-TRANSFERASE (GST) FUSION HUMAN ERK2 PROTEIN (manufactured by Carna Biosciences, Inc.), which was produced by using an E. coli expression system, was used.
12 μL of a reaction liquid (1.25 nmol/L ERK2, 100 mmol/L Hepes, 10 mmol/L MgCl2, 1.5 mmol/L DTT, 0.003% Brij35, pH 7.5) including ERK2 protein and a test compound having a predetermined concentration was allowed to stand at room temperature for 15 minutes. Then, 3 μL of a mixture liquid of FL-PEPTIDE8 (5-FAM-IPTSPITTTYFFFKKK-COOH) (manufactured by Caliper Life Sciences), which is substrate peptide, and ATP (manufactured by Sigma-Aldrich Co. LLC.) was added thereto such that the final concentrations thereof became 4.25 μmol/L and 1 mmol/L, respectively, and an enzyme reaction was performed by allowing to stand at 25° C. for 120 minutes.
After the reaction, the enzyme reaction was stopped by adding 30 μL of a reaction stopper liquid (100 mmol/L HEPES, 11.2 mmol/L EDTA, 5.6% Brij35, pH 7.5) including a 0.5% COATING REAGENT 8 (trade name, manufactured by Perkin Elmer Inc.) thereto. Then, phosphorylated peptide and non-phosphorylated peptide were separated using LABCHIP EZ READER (trade name, manufactured by Caliper Life Sciences), and the porportion of the phosphorylated peptide was quantified.
as §1

[2] abbreviates: 4.5 nmol/L PI3Kα, PIP2 50 μmol/L, ATP 100 μmol/L.

In the case of `CC(C)c1nnc(Nc2ccc3nccc(Nc4ccccn4)c3n2)s1` [Example 0005], the pIC50 at human PI3Kα protein (setting [2]) was greater than 6.00.

For `CCOC(=O)c1csc(Nc2ccc3ncc(-c4cnn(C)c4)cc3n2)n1` [Example 0034, ethyl 2-((7-(1-methyl-1H-pyrazol-4-yl)-1,5-naphthyridin-2-yl)amino)thiazole-4-carboxylate], the pIC50 on human PI3Kα protein (setting [2]) is 5.00 to 6.00.

On to `Cc1nnc(Sc2ccc3ncc(-c4cnn(C)c4)cc3n2)s1` [Example 0047, 2-methyl-5-((7-(1-methyl-1H-pyrazol-4-yl)-1,5-naphthyridin-2-yl)thio)-1,3,4-thiadiazole], for which the pIC50 on human PI3Kα protein (setting [2]) was greater than 6.00.

For the molecule `COc1cncc(Nc2cnc3ccc(Nc4cncc(OC)c4)nc3c2)c1` [Example 0155, N^2,N^7-bis(5-methoxypyridin-3-yl)-1,5-naphthyridine-2,7-diamine], the pIC50 on human PI3Kα protein (setting [2]) was 5.00 to 6.00.

On to `CC(C)c1cnnc(Nc2ccc3nccc(-c4ccncc4)c3n2)c1` [Example 0410], for which the pIC50 (in experiment [1] (ERK2 enzyme assay (2)); on human PI3Kα protein) was greater than 6.00 in each case.

`Cc1cccc(Cn2cc(-c3cnc4ccc(Nc5cc(C(C)C)cnn5)nc4c3)cn2)n1` [Example 0411, N-(5-isopropylpyridazin-3-yl)-7-(1-((6-methylpyridin-2-yl)methyl)-1H-pyrazol-4-yl)-1,5-naphthyridine-2-amine]: the pIC50 (in experiment [1] (ERK2 enzyme assay (2)); on human PI3Kα protein) was greater than 6.00 each time.

In the case of `COc1cccc(Cn2cc(-c3cnc4ccc(Nc5cc(C(C)C)cnn5)nc4c3)cn2)n1` [Example 0412, N-(5-isopropylpyridazin-3-yl)-7-(1-((6-methoxypyridin-2-yl)methyl)-1H-pyrazol-4-yl)-1,5-naphthyridine-2-amine], the pIC50 (in experiment [1] (ERK2 enzyme assay (2)); on human PI3Kα protein) was greater than 6.00 throughout.

With `CC(C)c1cnnc(Nc2ccc3ncc(-c4cnn(C(C)c5ccccn5)c4)cc3n2)c1` (stereo not drawn) [Example 0414], the pIC50 (in experiment [1] (ERK2 enzyme assay (2)); on human PI3Kα protein) was greater than 6.00 each time.

`CC(C)c1cnnc(Nc2ccc3ncc(-c4cnn(CCCN5CCCCC5=O)c4)cc3n2)c1` [Example 0415, 1-(3-(4-(6-((5-Isopropylpyridazin-3-yl)amino)-1,5-naphthyridin-3-yl)-1H-pyrazol-1-yl)propyl)piperidin-2-one]: the pIC50 (in experiment [1] (ERK2 enzyme assay (2)); on human PI3Kα protein) was greater than 6.00 throughout.

Take `CC(C)c1cnnc(Nc2ccc3ncc(-c4cnn(CCC(=O)N5CCCCC5)c4)cc3n2)c1` [Example 0416]: the pIC50 (in experiment [1] (ERK2 enzyme assay (2)); on human PI3Kα protein) was greater than 6.00 in each case.

For the molecule `CC(C)c1cnnc(Nc2ccc3ncc(-c4cnn(CCCN5CCC(F)(F)CC5)c4)cc3n2)c1` [Example 0419, 7-(1-(3-(4,4-Difluoropiperidin-1-yl)propyl)-1H-pyrazol-4-yl)-N-(5-isopropylpyridazin-3-yl)-1,5-naphthyridine-2-amine], the pIC50 (in experiment [1] (ERK2 enzyme assay (2)); at human PI3Kα protein) was greater than 6.00 each time.

For `CC(=O)Nc1cc(-c2cnc3ccc(Nc4cc(C(C)C)cnn4)nc3c2)ccn1` [Example 0421, N-(4-(6-((5-isopropylpyridazin-3-yl)amino)-1,5-naphthyridin-3-yl)pyridin-2-yl)acetamide], the pIC50 (in experiment [1] (ERK2 enzyme assay (2)); at human PI3Kα protein) was greater than 6.00 throughout.

With `CNc1cc(-c2cnc3ccc(Nc4cc(C(C)C)cnn4)nc3c2)ccn1` [Example 0423, N-(5-isopropylpyridazin-3-yl)-7-(2-(methylamino)pyridin-4-yl)-1,5-naphthyridine-2-amine hydrochloride], the pIC50 (in experiment [1] (ERK2 enzyme assay (2)); on human PI3Kα protein) was greater than 6.00 each time.

On to `CC(C)c1cnnc(Nc2ccc3ncc(-c4cnn(CCCN5CCN(C)CC5=O)c4)cc3n2)c1` [Example 0425], for which the pIC50 (in experiment [1] (ERK2 enzyme assay (2)); on human PI3Kα protein) was greater than 6.00 throughout.

In the case of `CC(C)c1cnnc(Nc2ccc3ncc(-c4cnn(CCCN5CCC(F)(F)C5)c4)cc3n2)c1` [Example 0427], the pIC50 (in experiment [1] (ERK2 enzyme assay (2)); at human PI3Kα protein) was greater than 6.00 each time.

`CC(C)c1cnnc(Nc2ccc3ncc(-c4cnn(CCCN5CC[C@H](F)C5)c4)cc3n2)c1` [Example 0428]: the pIC50 (in experiment [1] (ERK2 enzyme assay (2)); on human PI3Kα protein) was greater than 6.00 throughout.

As to `CC(C)c1cnnc(Nc2ccc3ncc(-c4cnn(CCCN5CC[C@@H](F)C5)c4)cc3n2)c1` [Example 0429], the pIC50 (in experiment [1] (ERK2 enzyme assay (2)); at human PI3Kα protein) was greater than 6.00 in each case.

For the molecule `CC(C)c1cnnc(Nc2ccc3ncc(-c4cnn(CCCN5CCN(C(=O)N(C)C)CC5)c4)cc3n2)c1` [Example 0433], the pIC50 (in experiment [1] (ERK2 enzyme assay (2)); at human PI3Kα protein) was greater than 6.00 throughout.

With `CC(=O)N1CCN(CCCn2cc(-c3cnc4ccc(Nc5cc(C(C)C)cnn5)nc4c3)cn2)CC1` [Example 0434], the pIC50 (in experiment [1] (ERK2 enzyme assay (2)); at human PI3Kα protein) was greater than 6.00 each time.

As to `CC(=O)N1[C@H](C)CN(CCCn2cc(-c3cnc4ccc(Nc5cc(C(C)C)cnn5)nc4c3)cn2)C[C@@H]1C` [Example 0435], the pIC50 (in experiment [1] (ERK2 enzyme assay (2)); at human PI3Kα protein) was greater than 6.00 each time.

In the case of `Cc1nccn1-c1cnc2ccc(Nc3cc(C(C)C)cnn3)nc2c1` [Example 0513], in experiment [1] (ERK2 enzyme assay (2)), the pIC50 is greater than 6.00.

As for `Cn1cc(-c2cnc3ccc(Nc4nccn4C)nc3c2)cn1` [Example 0516, N-(1-methyl-1H-imidazol-2-yl)-7-(1-methyl-1H-pyrazol-4-yl)-1,5-naphthyridine-2-amine], on human PI3Kα protein, the pIC50 is 4.30 to 5.00.

As for `Cc1ccnc(Nc2ccc3ncc(-c4cnn(C)c4)cc3n2)c1` [Example 0546], the pIC50 at human PI3Kα protein was greater than 6.00.

On to `Cn1cc(-c2cnc3ccc(Nc4cc(-c5ccccc5)cnn4)nc3c2)cn1` [Example 0570], for which the pIC50 in experiment [1] (ERK2 enzyme assay (2)) is greater than 6.00.

Turning to `CC(C)c1cnnc(Nc2ccc3ncc(C(=O)N(C)C)cc3n2)c1` [Example 0643], in experiment [1] (ERK2 enzyme assay (2)), the pIC50 is 4.30 to 5.00.

With `CC(C)c1cnnc(Nc2ccc3ncc(C(=O)NCc4ccccc4)cc3n2)c1` [Example 0647, N-benzyl-6-((5-isopropylpyridazin-3-yl)amino)-1,5-naphthyridine-3-carboxamide], the pIC50 in experiment [1] (ERK2 enzyme assay (2)) was 5.00 to 6.00.

Turning to `CC(C)c1cnnc(Nc2ccc3ncc(C(=O)Nc4ccccc4)cc3n2)c1` [Example 0668], the pIC50 in experiment [1] (ERK2 enzyme assay (2)) is 5.00 to 6.00.

On to `Cn1cc(-c2cnc3ccc(Nc4ccccc4N)nc3c2)cn1` [Example 0675, N^1-(7-(1-methyl-1H-pyrazol-4-yl)-1,5-naphthyridin-2-yl)benzene-1,2-diamine], for which the pIC50 at human PI3Kα protein is 4.30 to 5.00.

`Cn1cc(-c2cnc3ccc(Nc4cccc(N)c4)nc3c2)cn1` [Example 0677, N^1-(7-(1-methyl-1H-pyrazol-4-yl)-1,5-naphthyridin-2-yl)benzene-1,3-diamine]: the pIC50 at human PI3Kα protein was 5.00 to 6.00.

For `CC(C)c1cnnc(Nc2ccc3ncc(-c4cn(C)nc4-c4ccnc(N(C)C)c4)cc3n2)c1` [Example 0753, 7-(3-(2-(Dimethylamino)pyridin-4-yl)-1-methyl-1H-pyrazol-4-yl)-N-(5-isopropylpyridazin-3-yl)-1,5-naphthyridine-2-amine], the pIC50 on human PI3Kα protein is greater than 6.00.

Regarding `Cn1cc(-c2cnc3ccc(Nc4cc(-c5ccncc5)cnn4)nc3c2)cn1` [Example 0763], the pIC50 in experiment [1] (ERK2 enzyme assay (2)) was greater than 6.00.

With `Cn1cc(-c2cnc3ccc(Nc4ccncn4)nc3c2)cn1` [Example 0775, 7-(1-Methyl-1H-pyrazol-4-yl)-N-(pyrimidin-4-yl)-1,5-naphthyridine-2-amine], at human PI3Kα protein, the pIC50 is greater than 6.00.

Regarding `Cn1cc(-c2cnc3ccc(Nc4cc(C(C)(C)C)on4)nc3c2)cn1` [Example 0776, 5-(tert-Butyl)-N-(7-(1-methyl-1H-pyrazol-4-yl)-1,5-naphthyridin-2-yl)isoxazole-3-amine], the pIC50 on human PI3Kα protein is 4.30 to 5.00.

On to `Cc1ccc(S(=O)(=O)NC2CN(c3cnc4ccc(Nc5cc(C(C)C)cnn5)nc4c3)C2)cc1` [Example 0866], for which the pIC50 at human PI3Kα protein was 5.00 to 6.00.

For the molecule `CC(C)c1cnnc(Nc2ccc3ncc(-c4cnn(C)c4)c(O)c3n2)c1` [Example 0915, 6-((5-Isopropylpyridazin-3-yl)amino)-3-(1-methyl-1H-pyrazol-4-yl)-1,5-naphthyridine-4-ol], in experiment [1], the pIC50 is 4.30 to 5.00.
